Experimental data: patent US8906960B2, “Synergistic effect of tocotrienols and curcumin” (Malaysian Palm Oil Board, priority 2010, dated 2014)

Experiments:
[1] = test system: MCF-7 human breast cancer cells; test: Cell growth experiment: inhibition of proliferation of MCF-7 cells (viable cell count after 72 hours); format: cell-based
Description: Stock solution of TRF and curcumin was prepared in dimethyl sulfoxide (DMSO) at a concentration of 10 mg/mL. For cell growth experiments (as described below), treatments of TRF and curcumin were diluted in phenol red-free RPMI 1640 medium supplemented with 5% dextran-charcoal-treated […]) to final concentrations of 1-100 μM in test medium. MCF-7 cells were suspended from T75 flask by treatment of trypsin to an equal volume of phenol red free RPMI 1640 medium supplemented with 5% dextran-charcoal treated […]), 1% penicillin-streptomycin, 1% L-glutamine and counted on a haemocytometer. Cells were added to the required volume of phenol red free RPMI medium supplemented with 5% dextran-charcoal treated […]), 1% penicillin-streptomycin, 1% L-glutamine. […] MCF-7 cells were seeded in each well of 24-well tissue culture dishes. […] Cell proliferation was measured by using an automated particle counter, Beckman Coulter Particle Counter. […] The nuclei released were counted in isoton on a Coulter particle counter. […] The IC50 value was calculated as an average of three generated value of each replicates. Comparisons between means of six groups were assessed for significance. […]

[2] = test system: B16F-10 melanoma lung metastasis; conditions: cited from earlier work
[3] = test system: PC-3, a prostate cancer cell; conditions: PC-3 prostate cancer cell; cited from earlier work
[4] = test system: vascular cell adhesion molecule-1 (VCAM-1) expression; THP-1 adhesion to HUVECs; conditions: suppression of VCAM-1 expression and THP-1 adhesion to HUVECs; cited from earlier work

Q: With `COc1cc(/C=C/C(=O)CC(=O)/C=C/c2ccc(O)c(OC)c2)ccc1O` [Curcumin] as the compound, how does the IC50 ([1]; Homo sapiens, MCF7, MCF-7 cells, 72 hours, 10^-8 M estradiol, test compounds 1-100 μM, combinations with 1 μM of the second ingredient) read?
A: 25.3 µM

Q: And the “Effect of curcumin on the anti-proliferative effect of tocotrienols” value ([1]; estrogen-positive MCF-7 human breast cancer cells in vitro)?
A: synergistically enhanced the anti-proliferative effect of tocotrienols

Q: What about the “Increase of life span of the animals” value ([2]; mice treated with curcumin) of the same compound?
A: 143.85%

Q: And the “Reduction of the number of lung tumor nodules” value ([2]; oral administration, 200 nmol/kg body weight, mice)?
A: 80%

Q: For `Cc1c(C)c2c(c(C)c1O)CC[C@@](C)(CCC[C@H](C)CCC[C@H](C)CCCC(C)C)O2` [α-tocopherol], which “Effect on proliferation of PC-3” value [3] is on record?
A: no significant effects

Q: Which “Efficacy relative to α-tocopherol” value [4] does the source give for `CC(C)=CCC/C(C)=C/CC/C(C)=C/CC[C@]1(C)CCc2c(C)c(O)c(C)c(C)c2O1` [α-tocotrienol] here?
A: 10 fold

Q: For `CC(C)=CCC/C(C)=C/CC/C(C)=C/CC[C@]1(C)CCc2cc(O)c(C)c(C)c2O1` [γ-tocotrienol], which “Effect on proliferation of PC-3” value [3] is on record?
A: inhibit the proliferation

Q: With `CC(C)=CCC/C(C)=C/CC/C(C)=C/CC[C@]1(C)CCc2cc(O)cc(C)c2O1` [δ-tocotrienol] as the compound, how does the “Effect on proliferation of PC-3” value [3] read?
A: inhibit the proliferation
